Assay results published in patent publication US4239744A, “Radioreceptor assay for benzodiazepines in plasma and other biological specimens” (United States of America, priority 1978, dated 1980).

Tested on: binding sites for [^3 H] diazepam (benzodiazepine receptor), rat cerebral cortex synaptosomal membranes
Experiment: Radioreceptor assay: inhibition of [3H]diazepam binding to rat synaptosomal membranes by drugs dissolved in plasma
Conditions: for plasma concentration that could be reliably measured by inhibition of [3H]diazepam binding: benzodiazepine dissolved in plasma, assayed in triplicate, from standard curve in figure; for potency rank among the benzodiazepines tested in inhibiting [3H]diazepam binding: four benzodiazepines: clonazepam, N-demethyldiazepam, flurazepam
Method: Blood samples to be assayed are drawn into heparinized tubes and the plasma then separated therefrom by centrifugation at […]. Two-hundred μl of plasma is then pipetted into microtubes, e.g., Eppendorf Microtubes (Brinkman Instruments, Westbury, N.Y.) and diluted 1:10 with water. Samples are mixed by inversion and the plasma precipitated with 50 μl of perchloric acid. The samples are then vortexed briefly and centrifuged in a microcentrifuge, e.g., an Eppendorf Microfuge (Brinkman Instruments, Westbury, N.Y.), for three minutes. Twenty-five μl of the clear supernatant is withdrawn and added to 375 μl of distilled water in 16×125 mm glass tubes. Assays are thereafter performed at 0°-4° C. as follows:
The incubation is terminated after 15 min with a 5 ml wash of ice-cold […] Tris buffer (2-amino-2-hydroxymethyl-1,3-propanediol) at pH 7.4, and immediately filtered through Whatman GF/B filters in a filtering device, e.g., a Millepore filtering bank (Model 1225, Millipore Corp., Bedford, Mass.) The filters are immediately washed with an additional 5 ml of ice-cold buffer. The filters are airdried and suspended in a scintillation fluor, e.g., in 10 ml "Aquasol" (New England Nuclear, Boston, Mass.) and the radiation measured in a liquid scintillation counter, e.g., a Beckman LS-355 liquid scintillation counter.
Standard curves were constructed by adding known amounts of benzodiazepine to plasma, diluting the plasma (1:5 or 1:10) with water, and proceeding in an identical manner to unknown samples. […] The percent inhibition of specific binding by plasma samples is defined as: [formula] […] The slope and intercept of these lines were determined by least mean squares regression analysis and the benzodiazepine concentrations in unknown plasma samples computed from these values.
The synaptosomal membranes suspension described above is prepared as follows:
(a) homogenize rat brains in 20 volumes of ice-cold 0.32 M sucrose (using a Potter-Elvehjern homogenizer);
(b) centrifuge the resulting suspension obtained in step (a) at 1000×g for 10 minutes;
(c) centrifuge the supernatent obtained in step (b) at 20,000×g for 20 minutes; and
(d) resuspend the pellet obtained in step (c) in 40 volumes of Tris buffer to a final protein concentration of approximately 1 mg/ml.

Row | Structure (SMILES) | plasma concentration that could be reliably measured by inhibition of [3H]diazepam binding | potency rank among the benzodiazepines tested in inhibiting [3H]diazepam binding | potency in inhibiting [3H]diazepam binding relative to the parent compound diazepam (from standard curves in figure)
1 | O=C1CN=C(c2ccccc2Cl)c2cc([N+](=O)[O-])ccc2N1 [Clonazepam, clonazepam] | 10 ng/mL | most potent | –
2 | O=C1CN=C(c2ccccc2)c2cc(Cl)ccc2N1 [N-demethyldiazepam] | – | – | about 85%
3 | CCN(CC)CCN1C(=O)CN=C(c2ccccc2F)c2cc(Cl)ccc21 [flurazepam] | approximately 100 ng/ml | least potent | –
